What was measured:
[1] = molecular target: T1, IL-17A/F (Homo sapiens, UniProt Q16552+Q96PD4); experiment: IL-17A/F HEK-Blue cell assay (SEAP reporter); format: cell-based; conditions: HEK-Blue IL-17A reporter cells, IL17A/F 5 ng/mL, 20 hours, SEAP read at A630; read-out: HEK-Blue IL17AF (IC50 for IL-17A/F inhibition)
T1 construct: purchased R&D Systems
T1 sequence (Q16552 24-155): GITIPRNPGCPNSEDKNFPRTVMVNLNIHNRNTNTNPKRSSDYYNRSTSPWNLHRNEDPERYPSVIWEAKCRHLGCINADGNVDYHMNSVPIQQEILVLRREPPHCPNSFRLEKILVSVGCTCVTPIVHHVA
T1 sequence (Q96PD4 31-163): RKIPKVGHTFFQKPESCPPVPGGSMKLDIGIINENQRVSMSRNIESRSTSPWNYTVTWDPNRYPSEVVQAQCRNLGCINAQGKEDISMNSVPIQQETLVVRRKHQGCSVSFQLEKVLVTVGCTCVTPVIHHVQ

[2] = molecular target: T2, IL-17A/A (Homo sapiens, UniProt Q16552); experiment: IL-17A/A HEK-Blue cell assay (SEAP reporter); format: cell-based; conditions: HEK-Blue IL-17A reporter cells, IL17A/A 5 ng/mL, 20 hours, SEAP read at A630; read-out: HEK-Blue IL17AA (IC50 for IL-17A/A inhibition)
T2 construct: purchased Genscript Z03228
T2 sequence (Q16552 24-155): T1 sequence (Q16552 24-155)

SMILES | IC50 [1] [nM] | IC50 [2] [nM]
CCn1nccc1C(=O)N[C@H](c1cn2nc(C[C@H]3C[C@@H](C(F)(F)F)CNC3=O)c(C3CCNCC3)nc2n1)C1CCC(F)(F)CC1 [Compound 299, N—((S)-(4,4-difluorocyclohexyl)(2-(((3R,5R)-2-oxo-5-(trifluoromethyl)piperidin-3-yl)methyl)-3-(piperidin-4-yl)imidazo[1,2-b][1,2,4]triazin-6-yl)methyl)-1-ethyl-1H-pyrazole-5-carboxamide] | > 1000 | 100 to 1000
CCn1nccc1C(=O)N[C@H](c1cn2nc(C[C@H]3C[C@@H](C(F)(F)F)CNC3=O)c(C3CNC3)nc2n1)C1CCC(F)(F)CC1 [Compound 301, N—((S)-(3-(azetidin-3-yl)-2-(((3R,5R)-2-oxo-5-(trifluoromethyl)piperidin-3-yl)methyl)imidazo[1,2-b][1,2,4]triazin-6-yl)(4,4-difluorocyclohexyl)methyl)-1-ethyl-1H-pyrazole-5-carboxamide] | > 1000 | < 100
CCn1nccc1C(=O)N[C@H](c1cn2nc(C[C@H]3C[C@@H](C(F)(F)F)CNC3=O)c(C3CN(C)C3)nc2n1)C1CCC(F)(F)CC1 [Compound 302, N—((S)-(4,4-difluorocyclohexyl)(3-(1-methylazetidin-3-yl)-2-(((3R,5R)-2-oxo-5-(trifluoromethyl)piperidin-3-yl)methyl)imidazo[1,2-b][1,2,4]triazin-6-yl)methyl)-1-ethyl-1H-pyrazole-5-carboxamide] | > 1000 | < 100
CCn1nccc1C(=O)N[C@H](c1cn2nc(C[C@H]3C[C@H](C(F)(F)F)CNC3=O)c(N3CCO[C@H](C)C3)nc2n1)[C@@H]1CCCC(F)(F)C1 [Compound 305, N—((S)—((R)-3,3-difluorocyclohexyl)(3-((R)-2-methylmorpholino)-2-(((3R,5S)-2-oxo-5-(trifluoromethyl)piperidin-3-yl)methyl)imidazo[1,2-b][1,2,4]triazin-6-yl)methyl)-1-ethyl-1H-pyrazole-5-carboxamide] | < 100 | < 100
CCn1nccc1C(=O)N[C@H](c1cn2nc(C[C@H]3C[C@H](C(F)(F)F)CNC3=O)c(N3CCO[C@@H](C)C3)nc2n1)[C@@H]1CCCC(F)(F)C1 [Compound 306, N—((S)—((R)-3,3-difluorocyclohexyl)(3-((S)-2-methylmorpholino)-2-(((3R,5S)-2-oxo-5-(trifluoromethyl)piperidin-3-yl)methyl)imidazo[1,2-b][1,2,4]triazin-6-yl)methyl)-1-ethyl-1H-pyrazole-5-carboxamide] | 100 to 1000 | < 100
C[C@@H]1CN(c2nc3nc([C@@H](NC(=O)c4ccnn4C)[C@@H]4CCCC(F)(F)C4)cn3nc2C[C@H]2C[C@@H](C(F)(F)F)CNC2=O)CCO1 [Compound 307, N—((S)—((R)-3,3-difluorocyclohexyl)(3-((R)-2-methylmorpholino)-2-(((3R,5R)-2-oxo-5-(trifluoromethyl)piperidin-3-yl)methyl)imidazo[1,2-b][1,2,4]triazin-6-yl)methyl)-1-methyl-1H-pyrazole-5-carboxamide] | < 100 | < 100
C[C@H]1CN(c2nc3nc([C@@H](NC(=O)c4ccnn4C)[C@@H]4CCCC(F)(F)C4)cn3nc2C[C@H]2C[C@@H](C(F)(F)F)CNC2=O)CCO1 [Compound 308, N—((S)—((R)-3,3-difluorocyclohexyl)(3-((S)-2-methylmorpholino)-2-(((3R,5R)-2-oxo-5-(trifluoromethyl)piperidin-3-yl)methyl)imidazo[1,2-b][1,2,4]triazin-6-yl)methyl)-1-methyl-1H-pyrazole-5-carboxamide] | 100 to 1000 | < 100
C[C@H]1CN(c2nc3nc([C@@H](NC(=O)c4ccnn4C)[C@@H]4CCCC(F)(F)C4)cn3nc2C[C@H]2C[C@H](C(F)(F)F)CNC2=O)CCO1 [Compound 310, N—((S)—((R)-3,3-difluorocyclohexyl)(3-((S)-2-methylmorpholino)-2-(((3R,5S)-2-oxo-5-(trifluoromethyl)piperidin-3-yl)methyl)imidazo[1,2-b][1,2,4]triazin-6-yl)methyl)-1-methyl-1H-pyrazole-5-carboxamide] | 100 to 1000 | < 100
CCc1nonc1C(=O)N[C@H](c1cn2nc(C[C@H]3C[C@@H](C(F)(F)F)CNC3=O)c(N3CCN(C)CC3)nc2n1)C1CCC(F)(F)CC1 [Compound 312, N—((S)-(4,4-difluorocyclohexyl)(3-(4-methylpiperazin-1-yl)-2-(((3R,5R)-2-oxo-5-(trifluoromethyl)piperidin-3-yl)methyl)imidazo[1,2-b][1,2,4]triazin-6-yl)methyl)-4-ethyl-1,2,5-oxadiazole-3-carboxamide] | > 1000 | < 100
Cc1nonc1C(=O)N[C@H](c1cn2nc(C[C@H]3C[C@@H](C(F)(F)F)CNC3=O)c(C3CCOCC3)nc2n1)C1CC2(C1)CC(F)(F)C2 [Compound 314, N—((S)-(6,6-difluorospiro[3.3]heptan-2-yl)(2-(((3R,5R)-2-oxo-5-(trifluoromethyl)piperidin-3-yl)methyl)-3-(tetrahydro-2H-pyran-4-yl)imidazo[1,2-b][1,2,4]triazin-6-yl)methyl)-4-methyl-1,2,5-oxadiazole-3-carboxamide] | > 1000 | < 100
CCc1nonc1C(=O)N[C@H](c1cn2nc(C[C@H]3C[C@@H](C(F)(F)F)CNC3=O)c(C3CCOCC3)nc2n1)C1CC2(C1)CC(F)(F)C2 [Compound 315, N—((S)-(6,6-difluorospiro[3.3]heptan-2-yl)(2-(((3R,5R)-2-oxo-5-(trifluoromethyl)piperidin-3-yl)methyl)-3-(tetrahydro-2H-pyran-4-yl)imidazo[1,2-b][1,2,4]triazin-6-yl)methyl)-4-ethyl-1,2,5-oxadiazole-3-carboxamide] | > 1000 | < 100
Cc1nonc1C(=O)N[C@H](c1cn2nc(C[C@H]3C[C@@H](C(F)(F)F)CNC3=O)c(C3CCOCC3)nc2n1)[C@H]1C[C@H]2C[C@H]2C1 [Compound 316, N—((S)-((1R,3r,5S)-bicyclo[3.1.0]hexan-3-yl)(2-(((3R,5R)-2-oxo-5-(trifluoromethyl)piperidin-3-yl)methyl)-3-(tetrahydro-2H-pyran-4-yl)imidazo[1,2-b][1,2,4]triazin-6-yl)methyl)-4-methyl-1,2,5-oxadiazole-3-carboxamide] | > 1000 | 100 to 1000
CCc1nonc1C(=O)N[C@H](c1cn2nc(C[C@H]3C[C@@H](C(F)(F)F)CNC3=O)c(C3CCOCC3)nc2n1)[C@H]1C[C@H]2C[C@H]2C1 [Compound 317, N—((S)-((1R,3r,5S)-bicyclo[3.1.0]hexan-3-yl)(2-(((3R,5R)-2-oxo-5-(trifluoromethyl)piperidin-3-yl)methyl)-3-(tetrahydro-2H-pyran-4-yl)imidazo[1,2-b][1,2,4]triazin-6-yl)methyl)-4-ethyl-1,2,5-oxadiazole-3-carboxamide] | > 1000 | 100 to 1000

Results, then the compound that gave them:

IC50 [1] [nM] | IC50 [2] [nM] | SMILES
> 1000 | 100 to 1000 | CCn1nccc1C(=O)N[C@H](c1cn2nc(C[C@H]3C[C@@H](C(F)(F)F)CNC3=O)c(C3CCN(C)CC3)nc2n1)C1CCC(F)(F)CC1 [Compound 300, N—((S)-(4,4-difluorocyclohexyl)(3-(1-methylpiperidin-4-yl)-2-(((3R,5R)-2-oxo-5-(trifluoromethyl)piperidin-3-yl)methyl)imidazo[1,2-b][1,2,4]triazin-6-yl)methyl)-1-ethyl-1H-pyrazole-5-carboxamide]
> 1000 | < 100 | CCn1nccc1C(=O)N[C@H](c1cn2nc(C[C@H]3C[C@@H](C)CNC3=O)c(C3CCOCC3)nc2n1)C1CCC(F)(F)CC1 [Compound 303]
> 1000 | < 100 | CCn1nccc1C(=O)N[C@H](c1cn2nc(C[C@@H]3C[C@@H](C)CNC3=O)c(C3CCOCC3)nc2n1)C1CCC(F)(F)CC1 [Compound 304]
100 to 1000 | < 100 | C[C@@H]1CN(c2nc3nc([C@@H](NC(=O)c4ccnn4C)[C@@H]4CCCC(F)(F)C4)cn3nc2C[C@H]2C[C@H](C(F)(F)F)CNC2=O)CCO1 [Compound 309, N—((S)—((R)-3,3-difluorocyclohexyl)(3-((R)-2-methylmorpholino)-2-(((3R,5S)-2-oxo-5-(trifluoromethyl)piperidin-3-yl)methyl)imidazo[1,2-b][1,2,4]triazin-6-yl)methyl)-1-methyl-1H-pyrazole-5-carboxamide]
> 1000 | < 100 | Cc1nonc1C(=O)N[C@H](c1cn2nc(C[C@H]3C[C@@H](C(F)(F)F)CNC3=O)c(N3CCN(C)CC3)nc2n1)C1CCC(F)(F)CC1 [Compound 311, N—((S)-(4,4-difluorocyclohexyl)(3-(4-methylpiperazin-1-yl)-2-(((3R,5R)-2-oxo-5-(trifluoromethyl)piperidin-3-yl)methyl)imidazo[1,2-b][1,2,4]triazin-6-yl)methyl)-4-methyl-1,2,5-oxadiazole-3-carboxamide]
> 1000 | < 100 | Cc1nonc1C(=O)N[C@H](c1cn2nc(C[C@H]3C[C@@H](C(F)(F)F)CNC3=O)c(C3CCOCC3)nc2n1)C1CCCCC1 [Compound 313, N—((S)-cyclohexyl(2-(((3R,5R)-2-oxo-5-(trifluoromethyl)piperidin-3-yl)methyl)-3-(tetrahydro-2H-pyran-4-yl)imidazo[1,2-b][1,2,4]triazin-6-yl)methyl)-4-methyl-1,2,5-oxadiazole-3-carboxamide]

Reference: patent US20260226068A1, “IMIDAZOTRIAZINE IL-17A MODULATORS AND USES THEREOF” (DICE ALPHA, INC., priority 2023, published 2026)
